IC50 and Ki data for 19 molecules are collected here from US20130029991A1, “New Phenylsulfamoyl Benzamide Derivatives as Bradykinin Antagonists” (priority 2006, published 2013).

Counter-ions that a name gives are not always drawn. Some results are limits rather than exact numbers.

Assay [1] addresses T1, recombinant human B1 receptors (Homo sapiens, UniProt P46663).
T1 construct: host or cells: CHO (CHO-B1)
T1 sequence (P46663 1-353): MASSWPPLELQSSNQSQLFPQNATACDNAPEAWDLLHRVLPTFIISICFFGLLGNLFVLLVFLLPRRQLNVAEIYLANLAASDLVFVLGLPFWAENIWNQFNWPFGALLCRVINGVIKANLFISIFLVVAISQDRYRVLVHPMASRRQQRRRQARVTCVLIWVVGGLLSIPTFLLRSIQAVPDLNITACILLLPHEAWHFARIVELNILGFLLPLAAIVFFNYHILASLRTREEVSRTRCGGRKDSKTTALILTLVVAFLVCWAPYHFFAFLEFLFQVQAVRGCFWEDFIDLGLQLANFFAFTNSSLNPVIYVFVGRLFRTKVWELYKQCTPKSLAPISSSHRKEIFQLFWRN
Put plainly: Functional assay: antagonist potency by cytosolic calcium measurement (fluo-4, plate reader fluorimeter) in CHO-B1 cells. Type of assay: cell-based. Particulars: CHO-B1 cells, inhibition of LysDABK (EC80)-evoked [Ca2+]i elevation; read-out: B1 func. How it is done: Assessment of Antagonist Potency at B1 and B2 Receptors In Vitro by Measurement of Cytosolic Calcium Ion Concentration with a Plate Reader Fluorimeter in Cells Expressing Recombinant Human B1 or B2 Receptors
Chinese hamster ovary (CHO) cells stably expressing recombinant human B1 (CHO-B1, Euroscreen) or B2 (CHO-B2, Perkin-Elmer) receptors were cultured in Dulbecco's Modified Eagle's Medium (DMEM) containing 10% Fetal Calf Serum (FCS), 100 U/ml penicillin, 0.1 mg/ml streptomycin, 0.25 μg/ml amphotericin B, 1% Minimum Essential Medium Eagle (MEM), non essential amino acid solution, […], 1% pyruvate (for the B2 cell line). Cells were kept at 37° C. in a humidified incubator in an atmosphere of 5% CO2/95% air and were passaged 1:4 three times a week. Cells were plated at 1.5-2.5×10^4 cell/well on standard 96-well microplates, measurements of cytosolic calcium ion concentration ([Ca^2+]i) were carried out 1-2 days after cell plating.
Measurements of [Ca^2+]i were carried out on CHO-B1 and CHO-B2 cells stably expressing human B1 and B2 receptors, respectively. Cells were grown in standard 96-well microplates and before the measurement were loaded with a fluorescent Ca^2+-sensitive dye, fluo-4/AM (2 μM): after removing the culture medium the dye was added to the cells (dissolved in assay buffer: 145 mM NaCl, 5 mM KCl, 2 mM MgCl2, 2 mM CaCl2, 10 mM HEPES, 20 mM D-glucose, 2 mM probenecid, 100 μl/well) and cells were incubated at 37° C. in a humidified incubator in an atmosphere of 5% CO2/95% air for 40-120 min. To stop dye loading cells were washed twice with assay buffer. After washing, various concentrations of the test compounds (diluted in extracellular medium from a DMSO stock solution, final DMSO concentration was <0.1%) or buffer were added to each well depending on the experimental setup. After incubation at 37° C. for 20-25 min. baseline and agonist-evoked changes of [Ca^2+]i were measured column by column with a plate reader fluorimeter (Fluoroskan Ascent, Labsystems). Excitation and detection of emission was carried out from the bottom of the plate. Filters used for Fluo-4: excitation filter—485 nm, emission filter—538 nm. The whole measurement process was performed at 37° C. and was controlled by custom software Inhibitory potency of the test compounds was assessed by measuring the reduction in the agonist-evoked [Ca^2+]i-elevation in the presence of different concentrations of the compounds. The agonists were LysDABK for CHO-B1, and bradykinin for CHO-B2 cells. Agonists were applied at an EC80 concentration, the EC80-values were derived from daily determined dose-response curves. Fluorescence data were expressed as ΔF/F (fluorescence change normalized to baseline). All treatments on a single plate were measured in multiple wells. Data from all wells with the same treatment were averaged and the average values were used for analysis. Inhibitory potency of a compound at a single concentration point was expressed as percent inhibition of the control agonist response. Sigmoidal concentration-inhibition curves were fitted to the data (derived from at least three independent experiments) and IC50-values were determined as the concentration that produces half of the maximal inhibition caused by the compound.

In assay [2] the target is T2, human recombinant bradykinin B1 receptor (Homo sapiens, UniProt P46663).
T2 construct: host or cells: CHO cells
T2 sequence (P46663 1-353): T1 sequence (P46663 1-353)
Put plainly: Human recombinant bradykinin B1 receptor binding. To be noted: CHO cell membranes, [3H]-[Des-Arg10] Kallidin radioligand; read-out: B1 binding. How it is done:
1. Human Recombinant Bradykinin B1 Receptor Binding
Binding assays were carried out on human recombinant bradykinin) receptors (expressed in CHO cells) according to the Euroscreen Technical Data Sheet (Cat.No.:ES-091). 20 μg protein/tube was incubated with [3,4-prolyl-3,4-^3H(N)]-[Des-Arg^10] Kallidin as radioligand. Non specific binding was determined in the presence of 10 μM Lys-des-Arg^9-Bradykinin. The final incubation volume was 250 μl. Samples were incubated for 15 min. at 25° C. then were rapidly vacuum filtered through GF/B filters presoaked for at least 1 h in 0.5% PEI. Radioactivity was determined by liquid scintillation spectroscopy.

As for `O=C(CNC(=O)c1ccc(S(=O)(=O)Nc2ccccc2Oc2ccc(Cl)cc2Cl)cc1)NCC1CCNCC1` [Example 1, 4-[2-(2,4-Dichloro-phenoxy)-phenylsulfamoyl]-N-{[(Piperidin-4-ylmethyl)-carbamoyl]-methyl}-benzamide hydrochloride], the IC50 in assay [1] was under 20 nM. The Ki in assay [2] was under 20 nM.
On to `O=C(CNC(=O)c1ccc(S(=O)(=O)Nc2ccccc2Oc2ccc(Cl)cc2Cl)cc1)NCCCN1CCCCC1` [Example 2, 4-[2-(2,4-Dichloro-phenoxy)-phenylsulfamoyl]-N-[(3-piperidin-1-yl-propylcarbamoyl)-methyl]-benzamide], for which, in assay [1], the IC50 was under 20 nM. The Ki in assay [2] was under 20 nM.
Regarding `O=C(CNC(=O)c1ccc(S(=O)(=O)Nc2ccccc2Oc2ccc(Br)cc2)cc1)NCC1CCNCC1` [Example 3, 4-[2-(4-Bromo-phenoxy)-phenylsulfamoyl]-N-{[(piperidin-4-ylmethyl)-carbamoyl]-methyl}-benzamide trifluoroacetate], in assay [1], the IC50 was under 20 nM. Moreover, the Ki in assay [2] is under 20 nM.
On to `O=C(CNC(=O)c1ccc(S(=O)(=O)Nc2cc(F)ccc2Oc2ccc(Br)cc2)cc1)NCC1CCNCC1` [Example 4, 4-[2-(4-Bromo-phenoxy)-5-fluoro-phenylsulfamoyl]-N-{[(piperidin-4-ylmethyl)-carbamoyl]-methyl}-benzamide trifluoroacetate], for which the IC50 in assay [1] was under 20 nM. Moreover, the Ki in assay [2] is under 20 nM.
Take `O=C(CNC(=O)c1ccc(S(=O)(=O)Nc2ccccc2Oc2ccccc2)cc1)NCC1CCNCC1` [Example 5, 4-(2-Phenoxy-phenylsulfamoyl)-N-{[(piperidin-4-ylmethyl)-carbamoyl]-methyl}-benzamide hydrochloride]: the IC50 in assay [1] lay in the range of 20 to 100 nM. Further, in assay [2], the Ki was in the range of 20 to 100 nM.
On to `O=C(NC(Cc1ccccc1)C(=O)NCC1CCNCC1)c1ccc(S(=O)(=O)Nc2ccccc2Oc2ccc(Cl)cc2Cl)cc1` (stereo not drawn) [Example 6, 4-[2-(2,4-Dichloro-phenoxy)-phenylsulfamoyl]-N-{2-phenyl-1-[(piperidin-4-ylmethyl)-carbamoyl]-ethyl}-benzamide hydrochloride], for which the IC50 in assay [1] is under 20 nM. Moreover, the Ki in assay [2] was under 20 nM.
Take `O=C(CNC(=O)c1ccc(S(=O)(=O)Nc2cc(F)ccc2Oc2ccccc2)cc1)NCC1CCNCC1` [Example 7, 4-(5-Fluoro-2-phenoxy-phenylsulfamoyl)-N-{[(piperidin-4-ylmethyl)-carbamoyl]-methyl}-benzamide hydrochloride]: the IC50 in assay [1] was under 20 nM. Further, in assay [2], the Ki was under 20 nM.
Consider `C[C@H](NC(=O)c1ccc(S(=O)(=O)Nc2ccccc2Oc2ccc(Cl)cc2Cl)cc1)C(=O)NCC1CCNCC1` [Example 8, 4-[2-(2,4-Dichloro-phenoxy)-phenylsulfamoyl]-N—{(S)-1-[(piperidin-4-ylmethyl)-carbamoyl]-ethyl}-benzamide hydrochloride], for which, in assay [1], the IC50 was under 20 nM. For the same molecule, the Ki in assay [2] was under 20 nM.
Turning to `O=C(CNC(=O)c1ccc(S(=O)(=O)Nc2ccccc2Oc2ccccc2)cc1)NCCC1CCNCC1` [Example 10, 4-(2-Phenoxy-phenylsulfamoyl)-N-[(2-piperidin-4-yl-ethylcarbamoyl)-methyl]-benzamide hydrochloride], in assay [1], the IC50 is under 20 nM. For the same molecule, the Ki in assay [2] was under 20 nM.
In the case of `COc1ccc(NS(=O)(=O)c2ccc(C(=O)NCC(=O)NCC3CCNCC3)cc2)c(Oc2ccc(Cl)cc2Cl)c1` [Example 11, 4-[2-(2,4-Dichloro-phenoxy)-4-methoxy-phenylsulfamoyl]-N-{[(piperidin-4-ylmethyl)-carbamoyl]-methyl}-benzamide hydrochloride], the IC50 in assay [1] lay in the range of 20 to 100 nM. The Ki in assay [2] was 20 to 100 nM.
Consider `O=C(CNC(=O)c1ccc(S(=O)(=O)Nc2ccccc2Oc2ccc(F)cc2)cc1)NCC1CCNCC1` [Example 12, 4-[2-(4-Fluoro-phenoxy)-phenylsulfamoyl]-N-{[(piperidin-4-ylmethyl)-carbamoyl]-methyl}-benzamide hydrochloride], for which the IC50 in assay [1] was under 20 nM. In assay [2], the Ki was under 20 nM.
For the molecule `O=C(CNC(=O)c1ccc(S(=O)(=O)Nc2cc(F)ccc2Oc2ccc(F)cc2)cc1)NCCC1CCNCC1` [Example 13, 4-[5-Fluoro-2-(4-fluoro-phenoxy)-phenylsulfamoyl]-N-[(2-piperidin-4-yl-ethylcarbamoyl)-methyl]-benzamide hydrochloride], the IC50 in assay [1] was under 20 nM. Moreover, in assay [2], the Ki is under 20 nM.
Turning to `N=C(N)N1CCC(CNC(=O)CNC(=O)c2ccc(S(=O)(=O)Nc3ccccc3Oc3ccc(Cl)cc3Cl)cc2)CC1` [Example 14, N-{[(1-Carbamimidoyl-piperidin-4-ylmethyl)-carbamoyl]-methyl}-4-[2-(2,4-dichloro-phenoxy)-phenylsulfamoyl]-benzamide hydrochloride], the IC50 in assay [1] is under 20 nM. Moreover, in assay [2], the Ki is under 20 nM.
In the case of `O=C(CNC(=O)c1ccc(S(=O)(=O)Nc2cc(F)ccc2Oc2ccc(F)cc2)cc1)NCC1CCNCC1` [Example 15, 4-[5-Fluoro-2-(4-fluoro-phenoxy)-phenylsulfamoyl]-N-{[(piperidin-4-ylmethyl)-carbamoyl]-methyl}-benzamide hydrochloride], the IC50 in assay [1] was under 20 nM. Also, the Ki in assay [2] was under 20 nM.
As for `CN(C)CC(C)(C)CNC(=O)CNC(=O)c1ccc(S(=O)(=O)Nc2ccccc2Oc2ccc(Cl)cc2Cl)cc1` [Example 35, 4-[2-(2,4-Dichloro-phenoxy)-phenylsulfamoyl]-N-[(3-dimethylamino-2,2-dimethyl-propylcarbamoyl)-methyl]-benzamide], the Ki in assay [2] is under 20 nM.
Still for that read-out and setting: under `CN(CCc1ccncc1)C(=O)CNC(=O)c1ccc(S(=O)(=O)Nc2ccccc2Oc2ccc(Cl)cc2Cl)cc1` [Example 43, 4-[2-(2,4-Dichloro-phenoxy)-phenylsulfamoyl]-N-{[methyl-(2-pyridin-4-yl-ethyl)-carbamoyl]-methyl}-benzamide] stands under 20 nM; under `O=C(CNC(=O)c1ccc(S(=O)(=O)Nc2ccccc2Oc2ccc(Cl)cc2Cl)cc1)NCCCCC1CCNCC1` [Example 59, 4-[2-(2,4-Dichloro-phenoxy)-phenylsulfamoyl]-N-[(4-piperidin-4-yl-butylcarbamoyl)-methyl]-benzamide hydrochloride], under 20 nM; under `N#CCc1ccc(NC(=O)CNC(=O)c2ccc(S(=O)(=O)Nc3ccccc3Oc3ccccc3)cc2)cc1` [Example 73, N-[(4-Cyanomethyl-phenylcarbamoyl)-methyl]-4-(2-phenoxy-phenylsulfamoyl)-benzamide], under 20 nM.
The same measure, in the same setting: in the case of `O=C(CNC(=O)c1ccc(S(=O)(=O)Nc2ccccc2Nc2ccccc2)cc1)NCC1CCNCC1` [Example 103, 4-(2-Phenylamino-phenylsulfamoyl)-N-{[(piperidin-4-ylmethyl)-carbamoyl]-methyl}-benzamide hydrochloride] it was under 20 nM.
